Experimental data reported in BigSolDB 2.1.

Cn1cnc([N+](=O)[O-])c1Cl
Details	solubility (mole fraction)
in 1,4-dioxane, 283.15 K	0.00714
in 1,4-dioxane, 285.65 K	0.00797
in 1,4-dioxane, 288.15 K	0.00882
in 1,4-dioxane, 290.65 K	0.00986
in 1,4-dioxane, 293.15 K	0.0109
in 1,4-dioxane, 295.65 K	0.0119
in 1,4-dioxane, 298.15 K	0.0129
in 1,4-dioxane, 300.65 K	0.014
in 1,4-dioxane, 303.15 K	0.0151
in 1,4-dioxane, 305.65 K	0.0161
in 1,4-dioxane, 308.15 K	0.0173
in 1,4-dioxane, 310.65 K	0.0186
in 1,4-dioxane, 313.15 K	0.0198
in 1,4-dioxane, 315.65 K	0.021
in 1,4-dioxane, 318.15 K	0.0225
in 2-butanone, 283.15 K	0.0145
in 2-butanone, 285.65 K	0.016
in 2-butanone, 288.15 K	0.0176
in 2-butanone, 290.65 K	0.0194
in 2-butanone, 293.15 K	0.0214
in 2-butanone, 295.65 K	0.0235
in 2-butanone, 298.15 K	0.0259
in 2-butanone, 300.65 K	0.0282
in 2-butanone, 303.15 K	0.0308
in 2-butanone, 305.65 K	0.0335
in 2-butanone, 308.15 K	0.0368
in 2-butanone, 310.65 K	0.04
in 2-butanone, 313.15 K	0.0434
in 2-butanone, 315.65 K	0.0474
in 2-butanone, 318.15 K	0.0512
in NMP, 283.15 K	0.157
in NMP, 285.65 K	0.162
in NMP, 288.15 K	0.168
in NMP, 290.65 K	0.174
in NMP, 293.15 K	0.181
in NMP, 295.65 K	0.188
in NMP, 298.15 K	0.195
in NMP, 300.65 K	0.202
in NMP, 303.15 K	0.209
in NMP, 305.65 K	0.217
in NMP, 308.15 K	0.224
in NMP, 310.65 K	0.233
in NMP, 313.15 K	0.242
in NMP, 315.65 K	0.252
in NMP, 318.15 K	0.261
in acetone, 283.15 K	0.0181
in acetone, 285.65 K	0.0202
in acetone, 288.15 K	0.0222
in acetone, 290.65 K	0.0248
in acetone, 293.15 K	0.027
in acetone, 295.65 K	0.0299
in acetone, 298.15 K	0.0326
in acetone, 300.65 K	0.0358
in acetone, 303.15 K	0.0391
in acetone, 305.65 K	0.0426
in acetone, 308.15 K	0.0465
in acetone, 310.65 K	0.0508
in acetone, 313.15 K	0.0555
in acetone, 315.65 K	0.06
in acetone, 318.15 K	0.0656
in chloroform, 283.15 K	0.0132
in chloroform, 285.65 K	0.0142
in chloroform, 288.15 K	0.0156
in chloroform, 290.65 K	0.017
in chloroform, 293.15 K	0.0185
in chloroform, 295.65 K	0.0201
in chloroform, 298.15 K	0.0219
in chloroform, 300.65 K	0.0236
in chloroform, 303.15 K	0.0255
in chloroform, 305.65 K	0.0276
in chloroform, 308.15 K	0.0298
in chloroform, 310.65 K	0.0322
in chloroform, 313.15 K	0.0345
in chloroform, 315.65 K	0.0372
in chloroform, 318.15 K	0.0399
in ethanol, 283.15 K	0.00218
in ethanol, 285.65 K	0.00235
in ethanol, 288.15 K	0.00259
in ethanol, 290.65 K	0.00283
in ethanol, 293.15 K	0.00313
in ethanol, 295.65 K	0.00347
in ethanol, 298.15 K	0.00381
in ethanol, 300.65 K	0.00417
in ethanol, 303.15 K	0.00456
in ethanol, 305.65 K	0.00497
in ethanol, 308.15 K	0.00539
in ethanol, 310.65 K	0.00587
in ethanol, 313.15 K	0.00643
in ethanol, 315.65 K	0.00705
in ethanol, 318.15 K	0.00784
in ethyl acetate, 283.15 K	0.00846
in ethyl acetate, 285.65 K	0.00911
in ethyl acetate, 288.15 K	0.00983
in ethyl acetate, 290.65 K	0.0108
in ethyl acetate, 293.15 K	0.0118
in ethyl acetate, 295.65 K	0.0128
in ethyl acetate, 298.15 K	0.0139
in ethyl acetate, 300.65 K	0.015
in ethyl acetate, 303.15 K	0.0162
in ethyl acetate, 305.65 K	0.0177
in ethyl acetate, 308.15 K	0.0191
in ethyl acetate, 310.65 K	0.0204
in ethyl acetate, 313.15 K	0.0218
in ethyl acetate, 315.65 K	0.0235
in ethyl acetate, 318.15 K	0.0253
in isopropanol, 283.15 K	0.00108
in isopropanol, 285.65 K	0.00125
in isopropanol, 288.15 K	0.00142
in isopropanol, 290.65 K	0.00158
in isopropanol, 293.15 K	0.00176
in isopropanol, 295.65 K	0.00195
in isopropanol, 298.15 K	0.00219
in isopropanol, 300.65 K	0.00247
in isopropanol, 303.15 K	0.00278
in isopropanol, 305.65 K	0.00313
in isopropanol, 308.15 K	0.00352
in isopropanol, 310.65 K	0.00408
in isopropanol, 313.15 K	0.00468
in isopropanol, 315.65 K	0.00533
in isopropanol, 318.15 K	0.00593
in methanol, 283.15 K	0.0028
in methanol, 285.65 K	0.00316
in methanol, 288.15 K	0.00349
in methanol, 290.65 K	0.00385
in methanol, 293.15 K	0.0042
in methanol, 295.65 K	0.0046
in methanol, 298.15 K	0.00506
in methanol, 300.65 K	0.00554
in methanol, 303.15 K	0.00603
in methanol, 305.65 K	0.00651
in methanol, 308.15 K	0.00699
in methanol, 310.65 K	0.00756
in methanol, 313.15 K	0.00811
in methanol, 315.65 K	0.0087
in methanol, 318.15 K	0.00936
in n-propanol, 283.15 K	0.00152
in n-propanol, 285.65 K	0.00168
in n-propanol, 288.15 K	0.00187
in n-propanol, 290.65 K	0.00208
in n-propanol, 293.15 K	0.00232
in n-propanol, 295.65 K	0.00258
in n-propanol, 298.15 K	0.00282
in n-propanol, 300.65 K	0.00308
in n-propanol, 303.15 K	0.00342
in n-propanol, 305.65 K	0.0038
in n-propanol, 308.15 K	0.00418
in n-propanol, 310.65 K	0.00468
in n-propanol, 313.15 K	0.00522
in n-propanol, 315.65 K	0.00592
in n-propanol, 318.15 K	0.0066
in toluene, 283.15 K	0.00194
in toluene, 285.65 K	0.00208
in toluene, 288.15 K	0.00228
in toluene, 290.65 K	0.00248
in toluene, 293.15 K	0.00272
in toluene, 295.65 K	0.00298
in toluene, 298.15 K	0.00325
in toluene, 300.65 K	0.00358
in toluene, 303.15 K	0.0039
in toluene, 305.65 K	0.00428
in toluene, 308.15 K	0.00468
in toluene, 310.65 K	0.00518
in toluene, 313.15 K	0.00568
in toluene, 315.65 K	0.00622
in toluene, 318.15 K	0.00683
